For assay [1], the system named is Botrytis cinerea. Briefly: Fungicidal activity against Botryotinia fuckeliana in 2 hr compound pretreated cucumber seedling assessed as inhibition of spot diameter squared as control efficiency at 200 ug/ml measured after 72 hr. Set-up: scale not given: the % may be the effect or the level left. Type of assay: functional.
In assay [2] the test system is Botrytis cinerea. The assay can be described thus: Fungicidal activity against Botryotinia fuckeliana assessed as inhibition of spore germination measured after 24 hr. Type of assay: functional, organism-based.
The subject of assay [3] is Botrytis cinerea. Briefly: Fungicidal activity against Botryotinia fuckeliana assessed as germ-tube elongation inhibition at 50 ug/ml measured after 24 hr. Type of assay: functional.
In assay [4] the test system is Botrytis cinerea. Briefly: Fungicidal activity against Botryotinia fuckeliana assessed as inhibition of mycelial growth measured after 72 hr. The format is functional, organism-based.

Molecules are shown by their SMILES. Converted amounts (≈) assume the structure as drawn. Bounds are passed on as bounds.

Consider 19 molecules from ChEMBL document CHEMBL3044660, “Synthesis of 2-amino-6-oxocyclohexenylsulfonamides and their activity against Botrytis cinerea” (Pest Manag Sci, 2011).

What is called EC50 is the concentration that produces a half-maximal response. The term EC80 denotes the concentration at which the effect reaches the 80% level. The inhibition is the change of the read-out against control, counted positive when it falls.

As for `CCCNC1=C(S(=O)(=O)NCCC)C(=O)CC(C)(C)C1`, in the assay with Botrytis cinerea [1], the Activity came out at 66.59%. Besides, in the assay with Botrytis cinerea [2], the EC50 was 0.23 mg/L (≈ 0.76 µM) and the EC80 amounted to 15.6 mg/L (≈ 51.7 µM). Moreover, in the assay on Botrytis cinerea [3], the inhibition at 50 µg/mL stood at 51.2%. In the assay with Botrytis cinerea [4], the concentration giving a half-maximal response (EC50) was 149 mg/L (≈ 494 µM).
On to `O=C1CCCC(Nc2ccccc2Cl)=C1S(=O)(=O)Nc1ccccc1Cl`, for which, in the assay on Botrytis cinerea [1], the Activity is given as 74.81%. For the same molecule, in the assay on Botrytis cinerea [2], the concentration giving a half-maximal response (EC50) was 0.37 mg/L (≈ 0.9 µM) and the concentration for an effect of 80% (EC80) turned out to be 60.9 mg/L (≈ 148 µM). The inhibition at 50 µg/mL with Botrytis cinerea [3] came out at 81.9%. For the same molecule, the concentration giving a half-maximal response (EC50) with Botrytis cinerea [4] is 10.6 mg/L (≈ 25.7 µM).
For `O=C1CCCC(Nc2ccc(Cl)cc2)=C1S(=O)(=O)Nc1ccc(Cl)cc1`, in that order: 53.57%, 0.26 mg/L (≈ 0.632 µM), more than 200 mg/L, 61.3% and 125 mg/L (≈ 305 µM).
For `Cc1ccc(NC2=C(S(=O)(=O)Nc3ccc(C)cc3)C(=O)CCC2)cc1`, in that order: 57.48%, 0.54 mg/L (≈ 1.46 µM), 117 mg/L (≈ 315 µM), 20.5% and 47.4 mg/L (≈ 128 µM).
For `CC1(C)CC(=O)C(S(=O)(=O)Nc2ccccc2Cl)=C(Nc2ccccc2Cl)C1`, in that order: 73.39%, 0.34 mg/L (≈ 0.774 µM), 4.53 mg/L (≈ 10.3 µM), 85.7% and 21.2 mg/L (≈ 48.2 µM).
For `CC1(C)CC(=O)C(S(=O)(=O)Nc2cccc(Cl)c2)=C(Nc2cccc(Cl)c2)C1`, the Activity with Botrytis cinerea [1] worked out at 58.51%. In addition, the EC50 in the assay on Botrytis cinerea [2] is 3.03 mg/L (≈ 6.9 µM); with Botrytis cinerea [4] it was 32.7 mg/L (≈ 74.4 µM). Further, the EC80 in the assay with Botrytis cinerea [2] stood at 128 mg/L (≈ 290 µM). Further, in the assay with Botrytis cinerea [3], the inhibition at 50 µg/mL amounted to 58.6%.
Taken in the same sequence, the figures for `CC1(C)CC(=O)C(S(=O)(=O)Nc2ccc(Cl)cc2)=C(Nc2ccc(Cl)cc2)C1` were 65.89%, 0.54 mg/L (≈ 1.23 µM), 128 mg/L (≈ 290 µM), 7.04 mg/L (≈ 16 µM) and 78.6%.
For the molecule `CC1(C)CC(=O)C(S(=O)(=O)Nc2ccc(Cl)c(Cl)c2)=C(Nc2ccc(Cl)c(Cl)c2)C1`, the Activity in the assay on Botrytis cinerea [1] was 69.77%. The EC50 in the assay on Botrytis cinerea [2] stood at 2.66 mg/L (≈ 5.23 µM); with Botrytis cinerea [4], 67.7 mg/L (≈ 133 µM). For the same molecule, the EC80 with Botrytis cinerea [2] was 12.3 mg/L (≈ 24.2 µM). Further, the inhibition at 50 µg/mL in the assay on Botrytis cinerea [3] worked out at 64.3%.
Taken in the same sequence, the figures for `CC1(C)CC(=O)C(S(=O)(=O)Nc2ccc(Br)cc2)=C(Nc2ccc(Br)cc2)C1` were 45.09%, 1.44 mg/L (≈ 2.73 µM), 39.1 mg/L (≈ 74.1 µM), 7.39 mg/L (≈ 14 µM) and 67.9%.
For `CC1(C)CC(=O)C(S(=O)(=O)Nc2ccccc2)=C(Nc2ccccc2)C1`, in that order: 61.17%, 96.6 mg/L (≈ 261 µM), 147 mg/L (≈ 398 µM), more than 200 mg/L and 21.4%.
For `CC1(C)CC(=O)C(S(=O)(=O)NCc2ccccc2)=C(NCc2ccccc2)C1`, in that order: 42.16%, 73.4 mg/L (≈ 184 µM), 26.4 mg/L (≈ 66.2 µM), 139 mg/L (≈ 349 µM) and 28.6%.
Turning to `Cc1ccccc1NC1=C(S(=O)(=O)Nc2ccccc2C)C(=O)CC(C)(C)C1`, the Activity in the assay on Botrytis cinerea [1] stood at 64.43%. The EC50 is 19.5 mg/L (≈ 49 µM) in the assay on Botrytis cinerea [2] and 8.05 mg/L (≈ 20.2 µM) in the assay on Botrytis cinerea [4]. Also, the EC80 in the assay on Botrytis cinerea [2] is 140 mg/L (≈ 352 µM). The inhibition at 50 µg/mL in the assay with Botrytis cinerea [3] worked out at 57.2%.
With `Cc1ccc(NC2=C(S(=O)(=O)Nc3ccc(C)cc3)C(=O)CC(C)(C)C2)cc1`, the Activity in the assay with Botrytis cinerea [1] stood at 58.6%. In addition, in the assay with Botrytis cinerea [2], the EC50 was 3.29 mg/L (≈ 8.26 µM) and the concentration for an effect of 80% (EC80) is 72.1 mg/L (≈ 181 µM). For the same molecule, the inhibition at 50 µg/mL in the assay with Botrytis cinerea [3] came to 57.2%. The EC50 in the assay on Botrytis cinerea [4] turned out to be 22.8 mg/L (≈ 57.2 µM).
For the molecule `Cc1cc(F)ccc1NC1=C(S(=O)(=O)Nc2ccc(F)cc2C)C(=O)CC(C)(C)C1`, the Activity with Botrytis cinerea [1] is 73.46%. Further, in the assay on Botrytis cinerea [2], the concentration for a half-maximal effect (EC50) turned out to be 1.59 mg/L (≈ 3.66 µM) and the EC80 was more than 200 mg/L. For the same molecule, the inhibition at 50 µg/mL in the assay with Botrytis cinerea [3] stood at 42.9%. Further, the concentration for a half-maximal effect (EC50) with Botrytis cinerea [4] was found to be 45.7 mg/L (≈ 105 µM).
Taken in the same sequence, the figures for `CC1(C)CC(=O)C(S(=O)(=O)Nc2ccc(Cl)cc2C(F)(F)F)=C(Nc2ccc(Cl)cc2C(F)(F)F)C1` were 47.92%, 6.14 mg/L (≈ 10.7 µM), more than 200 mg/L, 51.1% and 154 mg/L (≈ 268 µM).
For `CC1(C)CC(=O)C(S(=O)(=O)Nc2cccc(C(F)(F)F)c2)=C(Nc2cccc(C(F)(F)F)c2)C1`, in that order: 67.74%, 0.16 mg/L (≈ 0.316 µM), 14.2 mg/L (≈ 27.9 µM), 30.6% and 156 mg/L (≈ 308 µM).
For the molecule `CC1(C)CC(=O)C(S(=O)(=O)Nc2cc(C(F)(F)F)cc(C(F)(F)F)c2)=C(Nc2cc(C(F)(F)F)cc(C(F)(F)F)c2)C1`, in the assay with Botrytis cinerea [1], the Activity is given as 75.29%. Also, in the assay with Botrytis cinerea [2], the concentration giving a half-maximal response (EC50) turned out to be 0.51 mg/L (≈ 0.794 µM) and the concentration for an effect of 80% (EC80) is 34.8 mg/L (≈ 54.2 µM). The inhibition at 50 µg/mL in the assay with Botrytis cinerea [3] came to 61.5%. Besides, the concentration giving a half-maximal response (EC50) in the assay with Botrytis cinerea [4] stood at 92.2 mg/L (≈ 144 µM).
With `CC1(C)CC(=O)C(S(=O)(=O)NC2CCCCC2)=C(NC2CCCCC2)C1`, the Activity in the assay on Botrytis cinerea [1] was 82.21%. In the assay on Botrytis cinerea [2], the EC50 was 0.64 mg/L (≈ 1.67 µM) and the 80% effect concentration (EC80) was determined as 15.4 mg/L (≈ 40.3 µM). For the same molecule, the inhibition at 50 µg/mL in the assay on Botrytis cinerea [3] was 61.5%. For the same molecule, in the assay with Botrytis cinerea [4], the 50% effective concentration (EC50) worked out at 63.7 mg/L (≈ 167 µM).
In the case of `CC12CC1(C)C(=O)N(c1cc(Cl)cc(Cl)c1)C2=O` (stereo not given) [PROCYMIDONE], in the assay with Botrytis cinerea [1], the Activity is reported as 80.39%. For the same molecule, in the assay on Botrytis cinerea [2], the 50% effective concentration (EC50) stood at 0.98 mg/L (≈ 3.45 µM) and the EC80 was 3.18 mg/L (≈ 11.2 µM). Besides, the inhibition at 50 µg/mL with Botrytis cinerea [3] came out at 100%. The EC50 with Botrytis cinerea [4] worked out at 0.63 mg/L (≈ 2.22 µM).
